In patent publication US20090068290A1, “BIFEPRUNOX DOSES FOR TREATING SCHIZOPHRENIA” (priority 2006, published 2009):
Entries after “also recorded” stand apart in the source; their conditions may differ.

Tests used:
[1] = tested on: patients with chronic schizophrenia; test: PANSS responders (reduction in PANSS total score), Clinical Study Four; assay type: in vivo, human; conditions: FAS, LOCF
Description: (§1) METHODOLOGY: This study was a multinational, multicenter, randomized, double-blind, parallel-group, placebo-controlled, fixed-dose study. The study consisted of a 3- to 6-day antipsychotic-free run-in period, after which patients were randomised to 6 months of double-blind treatment with fixed doses of bifeprunox (20 mg/day (BX20) or 30 mg/day (BX30)) or placebo (PBO). Patients allocated to the BX groups were up-titrated from 0.25 mg/day over 7 days (BX20) or 8 days (BX30), and then continued on these doses for the remainder of the study. […] At predetermined time points, blood samples were obtained for drug concentration analysis of BX and its major metabolites (3′- and 4′-sulfate conjugates of BX), and pharmaco-economic assessments were performed.
CLINICAL STUDY FOUR: The proportion of patients with a ≧25%, ≧35%, ≧45%, or ≧55% reduction in PANSS total score relative to baseline at each visit (PANSS responders) is shown by LOCF (FIG. 4).

[2] = Pooled metabolic analysis, 6-month study: body weight; conditions: for Weight, Mean (SD) change from baseline: endpoint
Excerpt: OBJECTIVE: To examine the metabolic effects of bifeprunox in patients with acute and stable schizophrenia.
METHODS: Metabolic data was compiled from one 6-month and four 6-week studies (i.e., a treatment period) of bifeprunox in patients with stable and acute schizophrenia, respectively. In the 6-month study, patients received bifeprunox (n=331) or placebo (PBO) (n=166). […] Metabolic evaluations included body weight, body mass index (BMI), plasma glucose and lipid profiles. Fasting glucose and lipid values were assessed in one 6-week study and in the 6-month study. Triglyceride:HDL ratio (TG:HDL) was calculated as a marker of insulin resistance. No statistical analyses were performed; only descriptive statistics are presented.

[3] = tested on: patients with chronic schizophrenia; test: Adverse events incl. EPS TEAEs, Clinical Study Four; assay type: in vivo, human
Description: OTHER SECONDARY OBJECTIVE: To evaluate the long-term safety and tolerability of bifeprunox versus placebo.
as §1

[4] = Food effect on bifeprunox PK (standard high-fat meal)
Excerpt: (§2) The objective of this study is to assess the pharmacokinetics (PK) of bifeprunox. The PK of bifeprunox in healthy subjects were investigated based on a pooled analysis of PK parameters from 21 clinical pharmacology studies. The pooled analysis included PK profiles after single and multiple doses to 132 and 399 subjects, respectively, and explored the potential effects of age, gender, body weight, and race. In addition, PK in patients with schizophrenia were investigated using a population PK approach based on samples from 376 patients in phase II studies and 434 patients in phase III studies.

[5] = Clinical laboratory assessments (lipid shifts, thyroid function), Clinical Study Two; assay type: in vivo, human
Description: Pharmacokinetic (PK) data of bifeprunox in schizophrenic subjects were also assessed and are presented in a separate report (combined with data from study S1543003).
Subjects who completed this study had the option to continue in the long-term. […] Risperidone-treated subjects were titrated from 2 mg to 6 mg daily over a three-day period and were subsequently maintained at 6 mg/day for the remainder of the treatment period. […] Blood samples were also obtained at Screening/Baseline, Week 3, and Week 6 for clinical laboratory assessments.

[6] = Laboratory assessments (prolactin, lipids), Clinical Study One; assay type: in vivo, human
Excerpt: METHOD: A 6-Week randomized, placebo-controlled, risperidone-referenced dose-finding study included 589 randomized patients with an acute exacerbation of schizophrenia (DSM-IV-TR). […] The change in the Positive and Negative Symptom Scale (PANSS) total score, from baseline to endpoint, was the primary outcome measure. Secondary efficacy measures included: PANSS positive, PANSS negative, PANSS general psychopathology (GPP) score, PANSS-derived Brief Psychiatric Rating Scale (BPRS) score, Clinical Global Impressions-Severity of Illness (CGI-S), CGI-Improvement (CGI-I) scores, and responder rates. Safety and tolerability evaluations included extrapyramidal symptoms (EPS), weight gain, lipid profile, and serum prolactin. Risperidone was included for assay sensitivity.

[7] = tested on: CYP2C9, CYP3A4, CYP2D6; test: Metabolism and drug interactions of bifeprunox
Excerpt: as §2

[8] = Excretion of radioactivity after [14C]-labeled bifeprunox; conditions: single oral dose of [14C]-labeled bifeprunox
[9] = tested on: patients with chronic schizophrenia; test: PANSS positive subscale score, Clinical Study Four; assay type: in vivo, human; conditions: FAS, ANCOVA; for PANSS positive subscale, Adjusted Mean Change from Baseline (LS mean): LOCF
Description: as §1

[10] = baseline BMI 18.5-25 kg/m^2, BX total doses
[11] = baseline BMI <18.5 kg/m^2, BX total doses
[12] = baseline BMI >25-30 kg/m^2, BX total doses
[13] = baseline BMI >30 kg/m^2, BX total doses
[14] = baseline BMI All, BX total doses

SMILES: O=c1[nH]c2cccc(N3CCN(Cc4cccc(-c5ccccc5)c4)CC3)c2o1 [Bifeprunox, 7-[4-([1,1′-biphenyl]-3-ylmethyl)-1-piperazinyl]-2(3H)-benzoxazolone]
- proportion of patients with at least a 25% reduction in PANSS total score versus PBO ([1]; listed as BX20): statistically significantly larger than that in the PBO group from Week 9 onwards
- proportion of patients with at least a 25% reduction in PANSS total score versus PBO ([1]; listed as BX30): statistically significantly larger than that in the PBO group at Month 5 only
- ≧7% weight decrease, (%) [2, 10]: 8.7%
- ≧7% weight increase, (%) [2, 10]: 3.3%
- ≧7% weight decrease, (%) [2, 11]: 23.1%
- ≧7% weight decrease, (%) [2, 12]: 4.7%
- ≧7% weight increase, (%) [2, 12]: 2.4%
- ≧7% weight decrease, (%) [2, 13]: 12.8%
- ≧7% weight decrease, (%) [2, 14]: 8.8%
- ≧7% weight increase, (%) [2, 14]: 2.5%
- Weight, Mean (SD) change from baseline [2, 10]: −0.9 (2.9) kg
- Weight, Mean (SD) change from baseline [2, 11]: −0.8 (2.6) kg
- Weight, Mean (SD) change from baseline [2, 12]: −0.9 (2.7) kg
- Weight, Mean (SD) change from baseline [2, 13]: −3.0 (5.6) kg
- Weight, Mean (SD) change from baseline [2, 14]: −1.1 (3.3) kg
- mean weight change ([2]; final evaluation (LOCF)): -1.1 kg
- mean change in weight ([2]; patients with nausea or vomiting): -1.4 kg
- mean change in weight ([2]; patients without nausea or vomiting): -1.0 kg
- patients with TEAEs related to EPS that led to withdrawal ([3]; BX20): 4 patients
- weight decreased reported as a TEAE ([3]; BX20): 8%
- AKATHISIA, % ([3]; BX20, APTS): (6.9) %
- Choreoathetosis, % ([3]; BX20, APTS): (1.9) %
- DYSKINESIA, % ([3]; BX20, APTS): (1.3) %
- Dystonia, % ([3]; BX20, APTS): (0.6) %
- EPS TEAEs: MUSCULOSKELETAL AND CONNECTIVE TISSUE DISORDERS, % ([3]; BX20, APTS): (0.6) %
- EPS TEAEs: NERVOUS SYSTEM DISORDERS, % ([3]; BX20, APTS): (10.1) %
- EXTRAPYRAMIDAL DISORDER, % ([3]; BX20, APTS): (0.6) %
- Muscle rigidity, % ([3]; BX20, APTS): (0.6) %
- Patients with EPS TEAEs, % ([3]; BX20, APTS): (10.1) %
- TREMOR, % ([3]; BX20, APTS): (0.6) %
- proportion of patients with TEAEs related to EPS ([3]; BX20, APTS): 10%
- patients with TEAEs related to EPS that led to withdrawal ([3]; BX30): 9 patients
- weight decreased reported as a TEAE ([3]; BX30): 8%
- weight increased reported as a TEAE ([3]; BX30): 1.2%
- AKATHISIA, % ([3]; BX30, APTS): (4.7) %
- Athetosis, % ([3]; BX30, APTS): (0.6) %
- Choreoathetosis, % ([3]; BX30, APTS): (0.6) %
- DYSKINESIA, % ([3]; BX30, APTS): (6.4) %
- EPS TEAEs: MUSCULOSKELETAL AND CONNECTIVE TISSUE DISORDERS, % ([3]; BX30, APTS): (0.6) %
- EPS TEAEs: NERVOUS SYSTEM DISORDERS, % ([3]; BX30, APTS): (14.5) %
- EXTRAPYRAMIDAL DISORDER, % ([3]; BX30, APTS): (2.9) %
- Muscle rigidity, % ([3]; BX30, APTS): (0.6) %
- Patients with EPS TEAEs, % ([3]; BX30, APTS): (14.5) %
- TREMOR, % ([3]; BX30, APTS): (2.9) %
- proportion of patients with TEAEs related to EPS ([3]; BX30, APTS): 15%
- increase in AUC with a standard high-fat meal ([4]; 40 mg dose): 29%
- increase in Cmax with a standard high-fat meal ([4]; 40 mg dose): 10%
- Tmax ([4]; human, plasma, oral, 40 mg): 1.5 h
- incidence of N to H shifts in tri-iodine thyronine ([5]; Bifeprunox 30 mg): 6%
- incidence of N to L shifts in TSH ([5]; Bifeprunox 30 mg): 4%
- incidence of N to H shifts in tri-iodine thyronine ([5]; Bifeprunox 40 mg): 5%
- incidence of N to L shifts in TSH ([5]; Bifeprunox 40 mg): 5%
- shifts in lipids compared with the placebo and risperidone groups ([5]; bifeprunox 30, 40 mg, 6 weeks): lower incidence of N to H shifts in triglycerides, VLDL, and LDL
- prolactin ([6]; bifeprunox 5-20 mg, 6 weeks, vs placebo): decreased prolactin levels; also recorded: a decrease in prolactin compared with the placebo group
- non-fasting triglycerides and total cholesterol compared to placebo ([6]; bifeprunox, 6 weeks (Example 4)): statistically significant improvements
- metabolizing enzymes ([7]; human, in vivo): metabolized by CYP2C9, CYP3A4 and to a lesser extent, CYP2D6
- interaction potential ([7]; in vivo): low interaction potential
- plasma levels in CYP2C9 slow/intermediate metabolizers ([7]; vs subjects with normal enzyme activity): higher plasma levels
- bifeprunox exposure on co-administration ([7]; with carbamazepine (CYP3A4 inducer)): reduced
- bifeprunox exposure on co-administration ([7]; with fluconazole (CYP2C9 inhibitor)): increased
- radioactivity excreted in the feces [8]: 74%
- radioactivity excreted in the urine [8]: 13%
- PANSS positive subscale scores versus PBO, per-visit LOCF analysis ([9]; BX20 or BX30): statistically significantly superior to that with PBO from Week 6 onwards
- PANSS positive subscale, Adjusted Mean Change from Baseline (LS mean) ([9]; Month 6): 0.3
- PANSS positive subscale, Adjusted Mean Change from Baseline (LS mean) ([9]; Week 6, listed as BX20): −0.9
- PANSS positive subscale, Adjusted Mean Change from Baseline (LS mean) ([9]; Week 6, listed as BX30): −0.8
